In the supplement of paper PMC10307832 one finds relative viability data, which are given here for eight cell lines.

What all share (test): relative viability (nuclei count vs DMSO), 5 days (fraction); higher = more cells survive
Compound in the assay “Carfilzomib + Lapatinib”: CC(C)C[C@H](NC(=O)[C@H](CCc1ccccc1)NC(=O)CN1CCOCC1)C(=O)N[C@@H](Cc1ccccc1)C(=O)N[C@@H](CC(C)C)C(=O)[C@@]1(C)CO1 [Carfilzomib] + CS(=O)(=O)CCNCc1ccc(-c2ccc3ncnc(Nc4ccc(OCc5cccc(F)c5)c(Cl)c4)c3c2)o1 [Lapatinib] (partner 2 µM)
A digest of the protocol:
(§1)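 Values are medians from duplicate plates. Each reflects relative viability, defined as the nuclei count of treated wells over that of vehicle wells. Lung cancer cell lines in 1536-well plates were pin-tool dosed one day after seeding with one drug alone or with a fixed anchor-drug dose plus five library-drug doses (not always all listed) in √10 steps, then fixed, stained and imaged at 4× after 5 days.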

Compound in the assay “Carfilzomib + Alpelisib”: CC(C)C[C@H](NC(=O)[C@H](CCc1ccccc1)NC(=O)CN1CCOCC1)C(=O)N[C@@H](Cc1ccccc1)C(=O)N[C@@H](CC(C)C)C(=O)[C@@]1(C)CO1 [Carfilzomib] + Cc1nc(NC(=O)N2CCC[C@H]2C(N)=O)sc1-c1ccnc(C(C)(C)C(F)(F)F)c1 [Alpelisib] (partner 2 µM)
The essentials: as §1

Compound in the assay “Olaparib + Phenformin”: O=C(c1cc(Cc2n[nH]c(=O)c3ccccc23)ccc1F)N1CCN(C(=O)C2CC2)CC1 [Olaparib] + N=C(N)NC(=N)NCCc1ccccc1 [Phenformin] (partner 250 µM)
The essentials:
as §1

Compound in the assay “Crizotinib + Tozasertib”: C[C@@H](Oc1cc(-c2cnn(C3CCNCC3)c2)cnc1N)c1c(Cl)ccc(F)c1Cl [Crizotinib] + Cc1cc(Nc2cc(N3CCN(C)CC3)nc(Sc3ccc(NC(=O)C4CC4)cc3)n2)n[nH]1 [Tozasertib] (partner 0.1 µM)
The essentials: as §1

NCI-H460: the relative viability with Carfilzomib + Lapatinib (first compound 0.001 µM) turned out to be 0.954; with Carfilzomib + Lapatinib (first compound 0.003162 µM) it was 1.18; with Carfilzomib + Lapatinib (first compound 0.01 µM) it was 0.955; with Carfilzomib + Lapatinib (first compound 0.03162 µM), 0.0195; in the assay with Carfilzomib + Lapatinib (first compound 0.1 µM) it was 0.0166; with Carfilzomib + Alpelisib (first compound 0.001 µM) it was 0.556. The relative viability was found to be 0.462 with Carfilzomib + Alpelisib (first compound 0.003162 µM); 0.538 in the assay with Carfilzomib + Alpelisib (first compound 0.01 µM); 0.101 in the assay with Carfilzomib + Alpelisib (first compound 0.03162 µM); 0.0126 with Carfilzomib + Alpelisib (first compound 0.1 µM); 0.598 in the assay with Olaparib + Phenformin (first compound 0.08 µM); 0.44 in the assay with Olaparib + Phenformin (first compound 0.253 µM). The relative viability amounted to 0.443 with Olaparib + Phenformin (first compound 2.53 µM); 0.233 in the assay with Olaparib + Phenformin (first compound 8 µM); 0.368 with Crizotinib + Tozasertib (first compound 0.01 µM); 0.441 in the assay with Crizotinib + Tozasertib (first compound 0.03162 µM); 0.474 in the assay with Crizotinib + Tozasertib (first compound 0.1 µM); 0.248 with Crizotinib + Tozasertib (first compound 0.3162 µM). In addition, in the assay with Crizotinib + Tozasertib (first compound 1 µM), the relative viability came to 0.455.

As for NCI-H520, the relative viability turned out to be 0.89 with Carfilzomib + Lapatinib (first compound 0.001 µM); 1.1 with Carfilzomib + Lapatinib (first compound 0.003162 µM); 0.622 in the assay with Carfilzomib + Lapatinib (first compound 0.01 µM); 0.148 in the assay with Carfilzomib + Lapatinib (first compound 0.03162 µM); 0.143 with Carfilzomib + Lapatinib (first compound 0.1 µM); 1.11 in the assay with Carfilzomib + Alpelisib (first compound 0.001 µM). Moreover, the relative viability with Carfilzomib + Alpelisib (first compound 0.003162 µM) is 0.951; in the assay with Carfilzomib + Alpelisib (first compound 0.01 µM) it was 0.574; in the assay with Carfilzomib + Alpelisib (first compound 0.03162 µM), 0.138; in the assay with Carfilzomib + Alpelisib (first compound 0.1 µM) it was 0.137; with Olaparib + Phenformin (first compound 0.08 µM), 0.645; in the assay with Olaparib + Phenformin (first compound 0.253 µM) it was 0.624. For the same cell line, the relative viability in the assay with Olaparib + Phenformin (first compound 2.53 µM) came out at 0.495; with Olaparib + Phenformin (first compound 8 µM) it was 0.385; with Crizotinib + Tozasertib (first compound 0.01 µM) it was 0.47; in the assay with Crizotinib + Tozasertib (first compound 0.03162 µM), 0.469; with Crizotinib + Tozasertib (first compound 0.1 µM) it was 0.448; with Crizotinib + Tozasertib (first compound 0.3162 µM), 0.45. For the same cell line, the relative viability in the assay with Crizotinib + Tozasertib (first compound 1 µM) was determined as 0.458.

For NCI-H596, the relative viability in the assay with Carfilzomib + Lapatinib (first compound 0.001 µM) turned out to be 0.965; with Carfilzomib + Lapatinib (first compound 0.003162 µM), 1.03; with Carfilzomib + Lapatinib (first compound 0.01 µM) it was 1.01; in the assay with Carfilzomib + Lapatinib (first compound 0.03162 µM) it was 0.805; in the assay with Carfilzomib + Lapatinib (first compound 0.1 µM), 0.207; with Carfilzomib + Alpelisib (first compound 0.001 µM), 0.467. The relative viability with Carfilzomib + Alpelisib (first compound 0.003162 µM) stood at 0.566; with Carfilzomib + Alpelisib (first compound 0.01 µM) it was 0.464; with Carfilzomib + Alpelisib (first compound 0.03162 µM), 0.276; with Carfilzomib + Alpelisib (first compound 0.1 µM), 0.194; with Olaparib + Phenformin (first compound 0.08 µM) it was 0.76; with Olaparib + Phenformin (first compound 0.253 µM) it was 0.732. Also, the relative viability was 0.653 with Olaparib + Phenformin (first compound 2.53 µM); 0.66 in the assay with Olaparib + Phenformin (first compound 8 µM); 0.887 with Crizotinib + Tozasertib (first compound 0.01 µM); 0.804 in the assay with Crizotinib + Tozasertib (first compound 0.03162 µM); 0.924 in the assay with Crizotinib + Tozasertib (first compound 0.1 µM); 0.861 with Crizotinib + Tozasertib (first compound 0.3162 µM).

With NCI-H647, the relative viability with Carfilzomib + Lapatinib (first compound 0.001 µM) was found to be 0.974; in the assay with Carfilzomib + Lapatinib (first compound 0.003162 µM), 1.17; in the assay with Carfilzomib + Lapatinib (first compound 0.01 µM), 0.428; in the assay with Carfilzomib + Lapatinib (first compound 0.03162 µM) it was 0.0287; with Carfilzomib + Lapatinib (first compound 0.1 µM), 0.0319; with Carfilzomib + Alpelisib (first compound 0.001 µM), 1.14. The relative viability with Carfilzomib + Alpelisib (first compound 0.003162 µM) is 1.19; with Carfilzomib + Alpelisib (first compound 0.01 µM), 0.71; with Carfilzomib + Alpelisib (first compound 0.03162 µM), 0.025; in the assay with Carfilzomib + Alpelisib (first compound 0.1 µM) it was 0.0242; with Olaparib + Phenformin (first compound 0.08 µM), 0.69; with Olaparib + Phenformin (first compound 0.253 µM) it was 0.431. Besides, the relative viability with Olaparib + Phenformin (first compound 2.53 µM) amounted to 0.518; in the assay with Olaparib + Phenformin (first compound 8 µM), 0.507; with Crizotinib + Tozasertib (first compound 0.01 µM) it was 0.267; in the assay with Crizotinib + Tozasertib (first compound 0.03162 µM) it was 0.305; with Crizotinib + Tozasertib (first compound 0.1 µM) it was 0.248; in the assay with Crizotinib + Tozasertib (first compound 0.3162 µM), 0.26. The relative viability with Crizotinib + Tozasertib (first compound 1 µM) came to 0.204.

Consider NCI-H650, for which the relative viability with Carfilzomib + Lapatinib (first compound 0.001 µM) is 0.61; with Carfilzomib + Lapatinib (first compound 0.003162 µM), 1.33; with Carfilzomib + Lapatinib (first compound 0.01 µM), 1.04; with Carfilzomib + Lapatinib (first compound 0.03162 µM), 0.361; in the assay with Carfilzomib + Lapatinib (first compound 0.1 µM), 0.18; in the assay with Carfilzomib + Alpelisib (first compound 0.001 µM) it was 1.09. Besides, the relative viability amounted to 1.3 with Carfilzomib + Alpelisib (first compound 0.003162 µM); 1.21 with Carfilzomib + Alpelisib (first compound 0.01 µM); 1.09 with Carfilzomib + Alpelisib (first compound 0.03162 µM); 0.164 with Carfilzomib + Alpelisib (first compound 0.1 µM); 0.541 in the assay with Olaparib + Phenformin (first compound 0.08 µM); 0.423 with Olaparib + Phenformin (first compound 0.253 µM). Moreover, the relative viability worked out at 0.473 with Olaparib + Phenformin (first compound 2.53 µM); 0.429 with Olaparib + Phenformin (first compound 8 µM); 0.772 with Crizotinib + Tozasertib (first compound 0.01 µM); 0.726 with Crizotinib + Tozasertib (first compound 0.03162 µM); 0.721 with Crizotinib + Tozasertib (first compound 0.1 µM); 0.616 in the assay with Crizotinib + Tozasertib (first compound 0.3162 µM). In addition, the relative viability with Crizotinib + Tozasertib (first compound 1 µM) was determined as 0.809.

In the case of NCI-H661, the relative viability in the assay with Carfilzomib + Lapatinib (first compound 0.001 µM) was 0.548; with Carfilzomib + Lapatinib (first compound 0.003162 µM), 0.836; with Carfilzomib + Lapatinib (first compound 0.01 µM), 0.533; with Carfilzomib + Lapatinib (first compound 0.03162 µM), 0.507; in the assay with Carfilzomib + Lapatinib (first compound 0.1 µM), 0.191; in the assay with Carfilzomib + Alpelisib (first compound 0.001 µM), 0.778. Besides, the relative viability was 0.93 with Carfilzomib + Alpelisib (first compound 0.003162 µM); 0.495 with Carfilzomib + Alpelisib (first compound 0.01 µM); 0.615 with Carfilzomib + Alpelisib (first compound 0.03162 µM); 0.181 in the assay with Carfilzomib + Alpelisib (first compound 0.1 µM); 0.219 in the assay with Olaparib + Phenformin (first compound 0.08 µM); 0.278 with Olaparib + Phenformin (first compound 0.253 µM). Further, the relative viability came to 0.273 in the assay with Olaparib + Phenformin (first compound 2.53 µM); 0.253 with Olaparib + Phenformin (first compound 8 µM); 0.336 in the assay with Crizotinib + Tozasertib (first compound 0.01 µM); 0.337 in the assay with Crizotinib + Tozasertib (first compound 0.03162 µM); 0.337 with Crizotinib + Tozasertib (first compound 0.1 µM); 0.369 in the assay with Crizotinib + Tozasertib (first compound 0.3162 µM). The relative viability in the assay with Crizotinib + Tozasertib (first compound 1 µM) worked out at 0.355.

Turning to NCI-H727, the relative viability with Carfilzomib + Lapatinib (first compound 0.001 µM) is 0.72; with Carfilzomib + Lapatinib (first compound 0.003162 µM), 0.855; with Carfilzomib + Lapatinib (first compound 0.01 µM), 0.61; with Carfilzomib + Lapatinib (first compound 0.03162 µM), 0.398; with Carfilzomib + Lapatinib (first compound 0.1 µM), 0.12; with Carfilzomib + Alpelisib (first compound 0.001 µM), 0.683. Also, the relative viability with Carfilzomib + Alpelisib (first compound 0.003162 µM) turned out to be 0.542; in the assay with Carfilzomib + Alpelisib (first compound 0.01 µM), 0.655; with Carfilzomib + Alpelisib (first compound 0.03162 µM) it was 0.421; with Carfilzomib + Alpelisib (first compound 0.1 µM), 0.0733; with Olaparib + Phenformin (first compound 0.08 µM), 0.634; with Olaparib + Phenformin (first compound 0.253 µM) it was 0.662. Moreover, the relative viability with Olaparib + Phenformin (first compound 2.53 µM) was determined as 0.556; with Olaparib + Phenformin (first compound 8 µM) it was 0.396; with Crizotinib + Tozasertib (first compound 0.03162 µM), 0.605; with Crizotinib + Tozasertib (first compound 0.1 µM), 0.612; with Crizotinib + Tozasertib (first compound 1 µM), 0.634.

On to NCI-H838, for which the relative viability turned out to be 0.889 with Carfilzomib + Lapatinib (first compound 0.001 µM); 1.33 in the assay with Carfilzomib + Lapatinib (first compound 0.003162 µM); 1.05 in the assay with Carfilzomib + Lapatinib (first compound 0.01 µM); 0.2 with Carfilzomib + Lapatinib (first compound 0.03162 µM); 0.119 in the assay with Carfilzomib + Lapatinib (first compound 0.1 µM); 0.979 in the assay with Carfilzomib + Alpelisib (first compound 0.001 µM). The relative viability with Carfilzomib + Alpelisib (first compound 0.003162 µM) stood at 1.09; with Carfilzomib + Alpelisib (first compound 0.01 µM), 1.06; with Carfilzomib + Alpelisib (first compound 0.03162 µM), 0.992; with Carfilzomib + Alpelisib (first compound 0.1 µM) it was 0.122; in the assay with Olaparib + Phenformin (first compound 0.08 µM), 0.569; with Olaparib + Phenformin (first compound 0.253 µM), 0.589. The relative viability amounted to 0.641 with Olaparib + Phenformin (first compound 2.53 µM); 0.589 with Olaparib + Phenformin (first compound 8 µM); 0.243 with Crizotinib + Tozasertib (first compound 0.01 µM); 0.296 with Crizotinib + Tozasertib (first compound 0.03162 µM); 0.246 with Crizotinib + Tozasertib (first compound 0.1 µM); 0.266 with Crizotinib + Tozasertib (first compound 0.3162 µM). Also, the relative viability in the assay with Crizotinib + Tozasertib (first compound 1 µM) worked out at 0.269.
